Results as given in US20050009158A1, “Process for enzymatically resolving an enantiomeric mixture of alpha-hydroxy acids” (priority 2003, published 2005).

How the values were obtained:
[1] = target: T1, porcine pancreatic lipase (PPL) (Sus scrofa, UniProt P00591); test: PPL lipase catalyzed hydrolysis of HMB esters; type: biochemical; conditions: for HMB/HMB-ester ratio for PPL lipase catalyzed hydrolysis: ester 1 mM, PPL 120 mg, pH 7.2, approx. 25° C., 24 hours; for Enantioselectivity of hydrolysis: Free Acid (L/D) / Enantioselectivity of hydrolysis: Ester (L/D): lipase PPL; for Enantioselectivity of hydrolysis: Free Acid (L/D): chiral LC of HMB from bicarbonate layer; for Enantioselectivity of hydrolysis: Ester (L/D): unhydrolyzed ester, chiral LC after 6N HCl hydrolysis; for extent of ester hydrolysis (in words): PPL, RPLC
T1 sequence (P00591 1-450): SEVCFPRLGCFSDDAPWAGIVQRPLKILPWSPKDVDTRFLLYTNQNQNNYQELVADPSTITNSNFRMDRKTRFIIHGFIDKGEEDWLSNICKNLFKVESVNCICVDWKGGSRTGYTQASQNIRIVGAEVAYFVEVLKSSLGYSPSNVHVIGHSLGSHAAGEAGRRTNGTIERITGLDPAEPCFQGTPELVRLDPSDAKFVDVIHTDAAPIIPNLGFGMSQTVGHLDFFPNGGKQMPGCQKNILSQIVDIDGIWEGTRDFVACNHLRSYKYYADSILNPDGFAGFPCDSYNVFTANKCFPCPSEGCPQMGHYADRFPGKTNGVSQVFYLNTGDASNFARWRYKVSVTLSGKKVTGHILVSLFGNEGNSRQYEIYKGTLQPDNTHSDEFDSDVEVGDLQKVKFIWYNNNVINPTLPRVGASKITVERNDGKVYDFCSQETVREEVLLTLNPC
Procedure: In another lipase mediated hydrolysis, HMB-methyl ester (1 mM) was added to a 40 mL reaction vial along with water (12 mL), a 0.1 M phosphate buffer with a pH of 7.2 (2 mL) and PPL (120 mg).
(§1) The non-enzymatic hydrolysis and the lipase mediated hydrolysis reactions were each carried out at a constant temperature of approximately 25° C. with constant stirring over the course of a 24 hour period. During the course of reaction pH of the reaction mixture was maintained at 7.2. After the reaction was complete, the reaction solvents were removed from the reaction mixture with a rotary evaporator.
(§2) After each of the hydrolysis reactions, the dry hydrolysis reaction product containing the α-hydroxy acid of HMB was dissolved in ethanol (10 mL), a sample of the reaction product solution (1 mL) was taken and diluted with additional ethanol (9 mL) and the further diluted solution was filtered through a filter having a pore size of 2 μm (Model manufactured by Millipore Corp. of Bedford, Mass.). The filtered extract was then introduced into the liquid chromatograph and the free acid and residual ester were separated on a C-8 reverse phase liquid chromatography column of the type described above.
(§3) Ethanol was removed from the remaining product mixture by rotary evaporation and the α-hydroxy acid product was re-dissolved in ethyl acetate (5 mL). The solution containing the α-hydroxy acid product was transferred to a 15 mL centrifuge tube to which 1 M sodium bicarbonate (6 mL) was added after which the centrifuge tube was shaken for a period of about five minutes, thus forming an ethyl acetate layer containing HMB-methyl ester and a sodium bicarbonate layer containing D- and L-enantiomers of the α-hydroxy acid, HMB. These layers were then separated with a centrifuge and each of the separated layers were brought to near dryness with a rotary evaporator and the residue from the bicarbonate layer was dissolved in ethanol (5 mL) to form a solution which was filtered and analyzed for D- and L-enantiomers of HMB by chiral liquid chromatography in accordance with the method set forth below.
(§4) The dry residue from the ethyl acetate layer containing HMB-methyl ester was hydrolyzed with 6N HCl (2 mL) for a period of two hours to produce HMB which was solubilized in ethanol. The ethanol solutions were filtered and analyzed for D- and L-enantiomers of HMB by chiral liquid chromatography in accordance with the method set forth below.
(§5) Separation of the D- and L-forms of the α-hydroxy acid of HMB present in the sodium bicarbonate phase was carried out by liquid chromatography (LC) with a UV absorbance detector in tandem with electrospray ionization mass spectrometry in the negative mode (ESI(−)MS). […] The electrospray ionization mass spectrometer utilized was manufactured by Hitachi High Technologies (Model M-8000). The mobile phase composition consisted of 70% ammonium acetate buffer (pH 4, 30 mM) and 30% methanol. A macrocyclic antibiotic based column (Chirobiotic-TAG), manufactured by Advanced Separation Technologies, Inc., Whippany, N.J., was used for the chiral liquid chromatography.
As part of these investigations, HMB-butyl ester and HMB obtained from the hydrolysis were recovered from the reaction mixture through portioning in ethyl acetate and […] bicarbonate solution. The HMB acid was recovered from the bicarbonate solution; it was introduced into an enantioselective HPLC system. The recovered HMB-butyl ester was hydrolyzed with 6N HCl (chemically) and then introduced into the enantioselective HPLC system. Chromatograms of HMB enantiomers obtained after non-enzymatic and PPL catalyzed HMB-butyl ester hydrolysis are illustrated in FIGS. 7A-B respectively.

[2] = tested on: Candida rugosa lipase; test: Candida rugosa lipase catalyzed hydrolysis of HMB esters; type: biochemical; conditions: for HMB/HMB-ester ratio for Candida rugosa lipase catalyzed hydrolysis: ester 1 mM, lipase 120 mg, pH 7.2, approx. 25° C., 24 hours; for extent of ester hydrolysis (in words): Candida rugosa lipase, RPLC
Procedure: In another lipase mediated hydrolysis, HMB-methyl ester (1 mM) was added to a 40 mL reaction vial along with water (12 mL), a 0.1 M phosphate buffer with a pH of 7.2 (2 mL) and Candida rugosa (120 mg).
as §1, §2, §3, §4, §5

[3] = target: T2, Novo 435 (Candida antarctica) lipase (Moesziomyces antarcticus, UniProt P41365); test: Novo 435 (Candida antarctica) lipase catalyzed hydrolysis of HMB esters; type: biochemical; conditions: for HMB/HMB-ester ratio for Novo 435 (Candida antarctica) lipase catalyzed hydrolysis: ester 1 mM, immobilized lipase 6 mg, pH 7.2, approx. 25° C., 24 hours; for extent of ester hydrolysis (in words): Novo 435, RPLC
T2 construct: purchased Novo (only as part of the product name) 435 (also given as 438)
T2 sequence (P41365 26-342): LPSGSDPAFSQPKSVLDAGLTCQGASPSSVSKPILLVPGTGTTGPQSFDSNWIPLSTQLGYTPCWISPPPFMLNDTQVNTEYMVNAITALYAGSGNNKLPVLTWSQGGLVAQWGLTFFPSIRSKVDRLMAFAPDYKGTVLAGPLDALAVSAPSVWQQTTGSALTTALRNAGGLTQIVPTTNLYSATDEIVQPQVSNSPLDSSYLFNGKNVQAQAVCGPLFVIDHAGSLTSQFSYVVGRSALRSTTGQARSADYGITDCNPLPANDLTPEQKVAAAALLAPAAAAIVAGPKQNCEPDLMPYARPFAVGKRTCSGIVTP
Procedure: In another lipase mediated hydrolysis, HMB-methyl ester (1 mM) was added to a 40 mL reaction vial along with water (12 mL), a 0.1 M phosphate buffer with a pH of 7.2 (2 mL) which was contacted with an immobilized sample of Novo 438 (Candida antarctica) (6 mg).
as §1, §2

[4] = tested on: Aspergillus niger lipase; test: Aspergillus niger lipase catalyzed hydrolysis of HMB esters; type: biochemical; conditions: for HMB/HMB-ester ratio for Aspergillus niger lipase catalyzed hydrolysis: ester 1 mM, lipase 120 mg, pH 7.2, approx. 25° C., 24 hours; for extent of ester hydrolysis (in words): Aspergillus niger lipase, RPLC
Procedure: In one lipase mediated hydrolysis, HMB-methyl ester (1 mM) was added to a 40 mL reaction vial along with water (12 mL), a 0.1 M phosphate buffer with a pH of 7.2 (2 mL) and Aspergillus niger (120 mg).
as §1, §2, §3, §4, §5

[5] = Non-enzymatic hydrolysis of HMB esters in phosphate buffer; type: physicochemical; conditions: for HMB/HMB-ester ratio for non-enzyme catalyzed hydrolysis: ester 1 mM, phosphate buffer pH 7.2, approx. 25° C., 24 hours
Procedure: To carry out the hydrolysis of the ester, HMB-methyl ester (1 mM) was added to a 40 mL reaction vial along with water (12 mL) and a 0.1 M phosphate buffer having a pH of 7.2 (2 mL). The reaction was carried out at a constant temperature of, approximately 25° C. and constant stirring over a period of 24 hours. During the course of the reaction, the pH of the reaction mixture was maintained at 7.2. After the reaction was complete, the reaction solvents were removed from the reaction mixture with a rotary evaporator.
as §1, §2, §3, §4, §5

[6] = target: T3, immobilized PPL (Sus scrofa, UniProt P00591); test: Hydrolysis of HMB propyl ester using gel-bound (alginate-immobilized) PPL beads; type: biochemical, porcine; conditions: after a run of 3 hrs
T3 sequence (P00591 1-450): T1 sequence (P00591 1-450)
Procedure: Sodium alginate (500 mg), gelatin (300 mg) and water (9 ml) are introduced into and mixed in a 50 ml conical flask. The mix is then left undisturbed for 1 hour, after which the flask and its contents are autoclaved (120° C., 15 min.). The contents are then cooled at room temperature under continuous stirring. After the contents have cooled down, PPL (100 mg) in water (1 ml) is added to the flask and the contents stirred for further 15-20 min. Then glutaraldehyde (300 μl) is added to the flask contents and the mixture stirred for another 15 min. These contents are added drop-wise from a distance of around 10 cm by forcing them through the hypodermic needle in a 0.18M calcium chloride solution (2°-3° C.) . The gel breads solidify immediately upon contact with the calcium chloride solution, and after 30 min. are solidified. The solidified gel beads are washed 3-4 times with water to remove any loose enzyme from the surface.
The immobilized enzyme catalyst beads as prepared in the manner described in Example 6 were placed in a conical flask. […]
Reversed phase chromatography method was used for all the chromatograms set forth in the drawings. […] The reaction was monitored at 220 nm and gradient elution for the mobile phases used was 0 to 55% solvent B in 30 min.

[7] = Hydrolysis of HMB propyl ester with alginate beads without enzymes (control); type: physicochemical; conditions: water, 37° C., 2 hours and 3.30 hours
Procedure: Reversed phase chromatography method was used for all the chromatograms set forth in the drawings. The mobile phases chosen were water +0.1% trifluroacetic acid (TFA) (solvent A) and acetonitrile +0.1% TFA (solvent B). The column was maintained at 30° C. The reaction was monitored at 220 nm and gradient elution for the mobile phases used was 0 to 55% solvent B in 30 min.
The hydrolysis of HMBP was also checked using alginate beads without enzymes(CONTROL). The gel beads were placed in a conical flask of water (20 ml) and HMB propyl ester (240 mg) were added to it. The mixture was thereafter maintained at a temperature of 37° C. The chromatograms of FIGS. 15A and 15B are obtained for the product formed, for the same time constraints as before.

CSCCC(O)C(=O)OC(C)C (centres unmarked) [HMB-isopropyl ester, HMB isopropyl ester]
HMB/HMB-ester ratio for PPL lipase catalyzed hydrolysis [1]: 3.3
HMB/HMB-ester ratio for Candida rugosa lipase catalyzed hydrolysis [2]: 9.8
HMB/HMB-ester ratio for Novo 435 (Candida antarctica) lipase catalyzed hydrolysis [3]: 165
HMB/HMB-ester ratio for Aspergillus niger lipase catalyzed hydrolysis [4]: 0.81
Enantioselectivity of hydrolysis: Free Acid (L/D) ([4]; lipase Aspergillus niger, chiral LC of HMB from bicarbonate layer): 68/32
Enantioselectivity of hydrolysis: Ester (L/D) ([4]; lipase Aspergillus niger, unhydrolyzed ester, chiral LC after 6N HCl hydrolysis): 32/68
HMB/HMB-ester ratio for non-enzyme catalyzed hydrolysis [5]: 0.36

CCCOC(=O)C(O)CCSC (centres unmarked) [HMB-propyl ester, HMB propyl ester]
HMB/HMB-ester ratio for PPL lipase catalyzed hydrolysis [1]: 1.69
Enantioselectivity of hydrolysis: Free Acid (L/D) [1]: 75/25
Enantioselectivity of hydrolysis: Ester (L/D) [1]: 22/78
conversion of ester to HMB acid [6]: 50%
hydrolysis with alginate beads without enzymes [7]: no hydrolysis
HMB/HMB-ester ratio for Candida rugosa lipase catalyzed hydrolysis [2]: 84.45
HMB/HMB-ester ratio for Novo 435 (Candida antarctica) lipase catalyzed hydrolysis [3]: 52.27
HMB/HMB-ester ratio for Aspergillus niger lipase catalyzed hydrolysis [4]: 149.24
HMB/HMB-ester ratio for non-enzyme catalyzed hydrolysis [5]: 0.09

CCCCOC(=O)C(O)CCSC (centres unmarked) [HMB-butyl ester, HMB butyl ester]
concentration of L-enantiomer relative to D-enantiomer of HMB obtained ([1]; PPL catalyzed hydrolysis, FIG. 7B): nearly four times
extent of ester hydrolysis (in words) [1]: only partial
HMB/HMB-ester ratio for PPL lipase catalyzed hydrolysis [1]: 2.0
Enantioselectivity of hydrolysis: Free Acid (L/D) [1]: 81/19
Enantioselectivity of hydrolysis: Ester (L/D) [1]: 19/81
extent of ester hydrolysis (in words) [2]: Essentially all
HMB/HMB-ester ratio for Candida rugosa lipase catalyzed hydrolysis [2]: 42.6
extent of ester hydrolysis (in words) [3]: Essentially all
HMB/HMB-ester ratio for Novo 435 (Candida antarctica) lipase catalyzed hydrolysis [3]: 176.3
extent of ester hydrolysis (in words) [4]: Essentially all
HMB/HMB-ester ratio for Aspergillus niger lipase catalyzed hydrolysis [4]: 160.57
ester hydrolyzed by non-enzymatic hydrolysis ([5]; FIG. 4A): less than 1%
HMB/HMB-ester ratio for non-enzyme catalyzed hydrolysis [5]: 0.09
D- and L-HMB enantiomers obtained through chemical hydrolysis ([5]; non-enzymatic hydrolysis, FIG. 7A): equal concentrations

CCOC(=O)C(O)CCSC (centres unmarked) [HMB-ethyl ester, HMB ethyl ester]
HMB/HMB-ester ratio for PPL lipase catalyzed hydrolysis [1]: 0.94
Enantioselectivity of hydrolysis: Free Acid (L/D) [1]: 57/43
Enantioselectivity of hydrolysis: Ester (L/D) [1]: 43/57
HMB/HMB-ester ratio for Candida rugosa lipase catalyzed hydrolysis [2]: 7.84
Enantioselectivity of hydrolysis: Free Acid (L/D) ([2]; lipase Candida rugosa, chiral LC of HMB from bicarbonate layer): 62/38
Enantioselectivity of hydrolysis: Ester (L/D) ([2]; lipase Candida rugosa, unhydrolyzed ester, chiral LC after 6N HCl hydrolysis): 38/62
HMB/HMB-ester ratio for Aspergillus niger lipase catalyzed hydrolysis [4]: 16.71
HMB/HMB-ester ratio for non-enzyme catalyzed hydrolysis [5]: 0.53

COC(=O)C(O)CCSC (centres unmarked) [HMB-methyl ester, HMB methyl ester]
extent of ester hydrolysis (in words) [1]: partial
HMB/HMB-ester ratio for PPL lipase catalyzed hydrolysis [1]: 2.53
extent of ester hydrolysis (in words) [2]: near completion
HMB/HMB-ester ratio for Candida rugosa lipase catalyzed hydrolysis [2]: 62.37
extent of ester hydrolysis (in words) [3]: near completion
HMB/HMB-ester ratio for Novo 435 (Candida antarctica) lipase catalyzed hydrolysis [3]: 128
extent of ester hydrolysis (in words) [4]: partial
HMB/HMB-ester ratio for Aspergillus niger lipase catalyzed hydrolysis [4]: 4.55
HMB/HMB-ester ratio for non-enzyme catalyzed hydrolysis [5]: 1.45
